These results are taken from PMC3883635, “Two Different Conformations in Hepatitis C Virus p7 Protein Account for Proton Transport and Dye Release” (PLoS ONE, 2014).

In this experiment the target is T1, HCV-p7 (synthetic p7_1-63) (Hepatitis C virus (isolate H77), UniProt P27958).
T1 construct: mature p7 of the HCV genome polyprotein; synthetic peptide (solid-phase), extra N-terminal Met (residue 0); 63 residues plus 1; in DPhPC membranes
Put plainly: single channel recording in black lipid membrane. The class given is biochemical. Particulars: DPhPC membranes; 10 µM methanol solution of p7 added; read after five minutes; concentration of HMA not in text.

T1 sequence (P27958 747-809): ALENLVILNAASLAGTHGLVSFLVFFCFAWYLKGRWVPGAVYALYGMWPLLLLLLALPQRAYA

As to `N=C(N)NC(=O)c1nc(Cl)c(N2CCCCCC2)nc1N` [HMA], the channel block result was “HCV-p7 ion channel activity is blocked by HMA in a full trace of different voltages”.
